T1: Flag-epitope tag ZNF281 fusion protein (human, UniProt Q9Y2X9 1-895)
T1 construct: Expressed in transfected HEK293 cells and tested in cell lysate; also called FLAG-tagged ZNF281; Flag-tagged ZNF281
T1 sequence: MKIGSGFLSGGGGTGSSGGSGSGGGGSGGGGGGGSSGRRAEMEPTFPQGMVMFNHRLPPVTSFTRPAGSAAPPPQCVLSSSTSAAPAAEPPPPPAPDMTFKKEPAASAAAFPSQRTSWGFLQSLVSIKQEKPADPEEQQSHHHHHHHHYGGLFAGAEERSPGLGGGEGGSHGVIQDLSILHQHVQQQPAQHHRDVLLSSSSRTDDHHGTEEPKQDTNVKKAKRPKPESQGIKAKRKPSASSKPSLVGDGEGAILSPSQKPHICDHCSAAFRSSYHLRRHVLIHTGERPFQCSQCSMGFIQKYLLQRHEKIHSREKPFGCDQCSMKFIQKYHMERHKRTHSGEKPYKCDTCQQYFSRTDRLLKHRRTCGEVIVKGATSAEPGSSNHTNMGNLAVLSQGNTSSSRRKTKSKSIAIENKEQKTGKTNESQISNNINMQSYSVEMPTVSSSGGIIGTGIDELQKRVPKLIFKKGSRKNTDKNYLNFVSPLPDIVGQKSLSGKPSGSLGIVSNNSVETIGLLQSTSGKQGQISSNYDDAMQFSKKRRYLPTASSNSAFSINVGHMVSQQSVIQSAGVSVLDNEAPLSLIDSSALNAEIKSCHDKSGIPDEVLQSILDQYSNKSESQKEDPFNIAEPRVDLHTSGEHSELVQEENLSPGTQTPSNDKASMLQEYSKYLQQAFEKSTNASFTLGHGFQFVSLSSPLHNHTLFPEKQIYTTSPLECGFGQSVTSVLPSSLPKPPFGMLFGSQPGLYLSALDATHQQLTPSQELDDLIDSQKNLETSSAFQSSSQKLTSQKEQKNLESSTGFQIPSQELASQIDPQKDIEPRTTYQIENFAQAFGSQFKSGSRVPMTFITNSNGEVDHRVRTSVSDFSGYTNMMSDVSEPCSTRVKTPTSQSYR


Tests used:
[1] = tested on: adult tail-tip fibroblasts (TTFs) from αMHC-GFP mice; assay: Human retroviral ORF cDNA library screen for AGHMT-mediated cardiac reprogramming (high-throughput imaging of αMHC-GFP and cTnT); type: cell-based, mouse; settings: for cTnT Z-score / αMHC Z-score: individual cDNA expressed together with 5F (AGHMT), 9 days, Z-score ≥2 activator, ≤−2 inhibitor; for αMHC Z-score: αMHC-GFP; for 5F-mediated cardiac reprogramming (αMHC-GFP, cTnT immunocytochemistry): virus added to 5F (AGHMT), 9 days post-infection
Excerpt: Isolation of mouse tail-tip fibroblast. For isolation of adult mouse tail-tip fibroblasts, tails were cut from 8-12 weeks old adult wild-type or αMHC-GFP mouse and were minced into […] with razor blades after peeling off the superficial dermis. The minced tails were placed in fibroblast growth medium (DMEM supplemented with 10% FBS and 1% (vol/vol) penicillin/streptomycin). Tail-tip fibroblasts migrated out from the explants within 1 week and were passaged one time before use.
Construction of human retroviral ORFs library. Gateway-compatible Human ORFs pEntry vectors were purchased from Thermo Fisher Scientific. Gateway-compatible retroviral destination vector, pMXs-gw, was a gift from Shinya Yamanaka (Addgene plasmid #18656) (Takahashi, 2006). The inventors transferred each ORF individually into pMXs-gw by performing site-specific LR recombination using Gateway LR Clonase II Enzyme Mix kit (Thermo Fisher Scientific).
(§1) Retroviruses production, cellular reprogramming and treatment. For retroviruses production, Platinum E cells were seeded into culture dishes (1×10^5 cells/cm2) one day before transfection in DMEM supplemented with 10% FBS and 1% penicillin/streptomycin. Cells reached ˜80% confluency on the day of transfection. DNA plasmids were transfected into Platinum E cells using FuGENE 6 transfection reagent. Twenty-four hours after transfection, wild type or αMHC-GFP tail-tip fibroblasts were seeded into culture dishes or plates that were precoated with SureCoat (Cellutron) for one hour at a density of 6×10^4/cm^2. Forty-eight hours after transfection, polybrene was added to viral medium that was filtered through a 0.45-μm filter at a concentration of […]. The mixture replaced the growth medium in the cell culture plate with tail-tip fibroblasts. The viral infection was serially repeated twice. Twenty-four hours after the second infection, the viral medium was replaced with induction medium, composed of DMEM/199 (4:1), 10% conditioned medium obtained from neonatal rat cardiomyocyte culture, 10% FBS, 5% horse serum, 1% penicillin/streptomycin, 1% nonessential amino acids, 1% essential amino acids, 1% B-27, 1% insulin-selenium-transferrin, 1% vitamin mixture, and 1% sodium pyruvate (Invitrogen). Small molecule treatments were used throughout the reprogramming process 1004 dexamethasone (Dex), and 1004 nabumetone (Sigma).
Immunocytochemistry. For immunocytochemistry, cells were fixed in 4% paraformaldehyde for 15 min and permeabilized with 0.1% Triton-X in room temperature. Cells were washed with PBS for three times followed by blocking with 10% goat serum for 1 hr. Cells then were incubated with mouse monoclonal anti-cardiac Troponin T (cTnT) antibody (Thermo Scientific) at 1:500 dilutions and rabbit anti-GFP antibody (Thermo Scientific) at 1:500 dilutions in 5% Goat serum for 1 hr. After washing with PBS three times, Cells then were incubated with donkey anti-mouse alexa fluor 647 (Invitrogen) at 1:500 and goat anti-rabbit Alexa fluor 488 at 1:500 (Invitrogen).
Identification of activators and inhibitors of cardiac reprogramming in adult fibroblasts. The inventors' previously optimized cardiac reprogramming protocol with five factors (AGHMT, also called 5F) was able to reprogram ˜3% efficiency of adult TTFs to iCMs as measured by activation of a cardiac-specific αMHC-GFP transgene and cardiac troponin T (cTnT) immunostaining (Zhou et al., 2015). To identify additional regulators of cardiac reprogramming, the inventors created a retroviral expression library consisting of 1,052 open reading frame (ORF) cDNAs representing 786 human transcription factor, cytokine, epigenetic regulator and nuclear receptor genes (Table 51). The inventors screened this expression library for activators and inhibitors of cardiac reprogramming by expressing individual cDNAs together with 5F in isolated TTFs from αMHC-GFP mice, as schematized in FIG. 1A. […]

[2] = tested on: fibroblasts; settings: added to reprogramming cocktail (GMT); cited from earlier work
[3] = target: GATA4 (expression plasmid, luciferase reporter assay) (human) (UniProt P43694); assay: cell-based or functional assay
[4] = tested on: 5F-reprogrammed TTFs; assay: q-PCR of inflammatory and cardiac markers in 5F-reprogrammed TTFs treated with anti-inflammatory drugs; type: cell-based, mouse; settings: drug 10 μM added to 5F, 7 days
Description: as §1, with “Small molecule treatments were used throughout the reprogramming process 1004 dexamethasone (Dex), and 1004 nabumetone (Sigma).” left out
Quantitative mRNA measurement. […]

[5] = tested on: 5F-reprogrammed adult αMHC-GFP transgenic TTFs; assay: Immunocytochemistry and flow cytometry of αMHC-GFP and cTnT in 5F-reprogrammed TTFs treated with anti-inflammatory drugs; type: cell-based, mouse; settings: drug added to 5F, 7 days
Description: Retroviruses production, cellular reprogramming and treatment. For retroviruses production, Platinum E cells were seeded into culture dishes (1×10^5 cells/cm2) one day before transfection in DMEM supplemented with 10% FBS and 1% penicillin/streptomycin. Cells reached ˜80% confluency on the day of transfection. DNA plasmids were transfected into Platinum E cells using FuGENE 6 transfection reagent. Twenty-four hours after transfection, wild type or αMHC-GFP tail-tip fibroblasts were seeded into culture dishes or plates that were precoated with SureCoat (Cellutron) for one hour at a density of 6×10^4/cm^2. Forty-eight hours after transfection, polybrene was added to viral medium that was filtered through a 0.45-μm filter at a concentration of […]. The mixture replaced the growth medium in the cell culture plate with tail-tip fibroblasts. The viral infection was serially repeated twice. […]
Flow Cytometry. […] Cells were washed with Perm/Wash buffer, and then analyzed using FACS Caliber (BD Sciences) and FlowJo software. […]

[6] = target: T1, Flag-epitope tag ZNF281 fusion protein; assay: co-immunoprecipitation from transfected HEK293 cells (anti-FLAG IP, anti-Myc blot)
Description: FIGS. 6A-F. ZNF281 interacts with GATA4 to synergistically activate cardiac genes. (FIG. 6A) Co-immunoprecipitation assays were performed using HEK293 cells transfected with equal amounts of plasmid DNA encoding Myc-tagged GATA4, HAND2, MEF2c, or TBX5 and/or Flag-tagged ZNF281. IP, immunoprecipitation; IB, immunoblot. (FIG. 6B) Luciferase reporter assays were performed using HEK293 cells transfected with equal amounts of ZNF281 and/or GATA4 expression plasmids, as indicated, along with αMHC-luciferase reporter plasmid. (FIG. 6C) Heat maps showing ChIP-seq data for H3K27ac in adult mouse heart, and ZNF281 and GATA4 binding in reprogrammed TTFs at ±5 kB around the peak center. ChIP-seq experiments were performed using TTFs infected with 6F for 2 days. (FIG. 6D) ZNF281 binding motif enriched within ZNF281 binding peaks. (FIG. 6E) GATA4 binding motif enriched within GATA4 binding peaks. (FIG. 6F) Venn diagram showing the number of overlapping peaks between Heart H3K27ac, ZNF281 and GATA4. *P<0.05
Immunoprecipitation and Western Blot Analysis. Flag-epitope tag ZNF281 fusion protein were co-expressed with myc-epitope tag fusion GATA4, HAND2, MEF2C or TBX5 in HEK293 cells for 48 hours. […] The final elution and the input obtained before the immunoprecipitation was analyzed by SDS-PAGE western blot using a mouse monoclonal anti-Myc antibody (Novex) or mouse monoclonal anti-FLAG antibody (Sigma).

Sequence of GATA4 (expression plasmid, luciferase reporter assay) (human) (P43694 whole entry): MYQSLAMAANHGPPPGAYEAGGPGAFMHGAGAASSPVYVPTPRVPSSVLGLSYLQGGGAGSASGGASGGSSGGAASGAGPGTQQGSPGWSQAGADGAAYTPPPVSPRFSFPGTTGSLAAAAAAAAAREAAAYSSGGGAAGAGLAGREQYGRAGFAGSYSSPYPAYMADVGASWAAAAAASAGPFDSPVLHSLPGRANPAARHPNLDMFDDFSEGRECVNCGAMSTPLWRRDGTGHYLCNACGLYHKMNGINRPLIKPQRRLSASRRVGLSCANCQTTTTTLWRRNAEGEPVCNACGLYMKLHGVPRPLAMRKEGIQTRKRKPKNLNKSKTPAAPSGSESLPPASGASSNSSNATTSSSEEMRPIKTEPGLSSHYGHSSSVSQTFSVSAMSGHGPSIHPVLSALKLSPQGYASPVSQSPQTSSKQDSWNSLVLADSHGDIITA

Molecule | cTnT Z-score [1] | αMHC Z-score [1] | 5F-mediated cardiac reprogramming (αMHC-GFP, cTnT immunocytochemistry) [1] | other results
forkhead box protein A3 [FOXA3] | −3.1 | −4.3 | practically abolished | –
C[C@H](NC(=O)Cc1cc(F)cc(F)c1)C(=O)N[C@H](C(=O)OC(C)(C)C)c1ccccc1 [DAPT] | – | – | – | cardiac reprogramming [2]: enhance cardiac reprogramming
NC(=O)c1ccc(-c2nc(-c3ccc4c(c3)OCO4)c(-c3ccccn3)[nH]2)cc1 [SB431542] | – | – | – | cardiac reprogramming [2]: enhance cardiac reprogramming
ZNF281 (expression plasmid, luciferase reporter assay) (from UniProt Q9Y2X9 1-895) | – | – | – | αMHC-Luciferase reporter activation [3]: 15 fold
COc1ccc2cc(CCC(C)=O)ccc2c1 [nabumetone] | – | – | – | expression of inflammatory markers (IL6, Ccl2, and Ptgs1) [4]: decreased; cardiac reprogramming efficiency [5]: greatly enhanced
BMP2 | 0.5 | −3.2 | – | –
Achaete-scute homolog 1 [ASCL1] | 3.9 | 0.0 | greatly enhanced reprogramming | –
PHD finger protein 7 [PHF7] | 9.7 | 7.4 | enhanced reprogramming | –
myc-epitope tag fusion HAND2 (other, not shown: small tags and cut ends, Expressed in transfected HEK293 cells; The tag's position is unknown; also called Myc-tagged HAND2; Heart- and neural crest derivatives-expressed protein 2) MSLVGGFPHHPVVHHEGYPFAAAAAAAAAAAASRCSHEENPYFHGWLIGHPEMSPPDYSMALSYSPEYASGAAGLDHSHYGGVPPGAGPPGLGGPRPVKRRGTANRKERRRTQSINSAFAELRECIPNVPADTKLSKIKTLRLATSYIAYLMDLLAKDDQNGEAEAFKAEIKKTDVKEEKRKKELNEILKSTVSSNDKKTKGRTGWPQHVWALELKQ | – | – | – | binding result [6]: no binding
myc-epitope tag fusion TBX5 (other, not shown: small tags and cut ends, Expressed in transfected HEK293 cells; The tag's position is unknown; also called Myc-tagged TBX5; T-box transcription factor TBX5) MADADEGFGLAHTPLEPDAKDLPCDSKPESALGAPSKSPSSPQAAFTQQGMEGIKVFLHERELWLKFHEVGTEMIITKAGRRMFPSYKVKVTGLNPKTKYILLMDIVPADDHRYKFADNKWSVTGKAEPAMPGRLYVHPDSPATGAHWMRQLVSFQKLKLTNNHLDPFGHIILNSMHKYQPRLHIVKADENNGFGSKNTAFCTHVFPETAFIAVTSYQNHKITQLKIENNPFAKGFRGSDDMELHRMSRMQSKEYPVVPRSTVRQKVASNHSPFSSESRALSTSSNLGSQYQCENGVSGPSQDLLPPPNPYPLPQEHSQIYHCTKRKEEECSTTDHPYKKPYMETSPSEEDSFYRSSYPQQQGLGASYRTESAQRQACMYASSAPPSEPVPSLEDISCNTWPSMPSYSSCTVTTVQPMDRLPYQHFSAHFTSGPLVPRLAGMANHGSPQLGEGMFQHQTSVAHQPVVRQCGPQTGLQSPGTLQPPEFLYSHGVPRTLSPHQYHSVHGVGMVPEWSDNS | – | – | – | binding result [6]: no binding

Source: patent US20210180023A1, “CARDIAC REPAIR BY REPROGRAMMING OF ADULT CARDIAC FIBROBLASTS INTO CARDIOMYOCYTES” (The Board of Regents of the University of Texas System, priority 2017, published 2021)
